This note sets out measurements from PMC5861220, “The Cytochrome P450-Mediated Metabolism Alternation of Four Effective Lignans From Schisandra chinensis in Carbon Tetrachloride-Intoxicated Rats and Patients With Advanced Hepatocellular Carcinoma” (Frontiers in Pharmacology, 2018).

Where two headings read alike, the source gives them in different places.

The nature of data set [1]: Transport across Caco-2 cell monolayer. The conditions noted are these: human, 5 μM. It is filed as in vitro ADME. As to the method:
(§1) Caco-2 cell (passage 38) was used in the transport experiments. Cells were seeded on polycarbonate filters (12 mm diameter, pore size […]) at 1 × 10^5/cm^2. The cell monolayer was formed 21 days post seeding when the transepithelial electrical resistance (TEER) was above 1,000 Ω• cm^2. Three concentration levels (5, 10, and 50 μM) were set for the four schisandra lignans in the study. After preincubation for 1 h at 37°C, the solution of the four lignans was respectively added to the apical (0.4 mL) or basolateral (0.6 mL) chamber for absorptive (AP → BL) and secretive (BL → AP) permeability test. At the specified timepoints (0.5, 1, 1.5 and 2 h), 50 μL samples (n = 3) were withdrawn from receiver chamber, and meanwhile, 50 μL fresh buffer was added. The four lignans were determined by HPLC-MS method.
(§2) The efflux rate (ER) was calculated by the formula ER = Papp (BL → AP)/Papp(AP → BL).

Data set [2] has as its system acute liver injury (ALI) rats. In words: Biochemical indexes of liver and renal functions in CCl4-intoxicated (ALI) rats. It is filed as in vivo, rat. As to the method:
Male Sprague-Dawley rats, weighing 180–220 g, were obtained from Beijing Vital River Experimental Animal Co., Ltd. The animals were quarantined for 1 week prior to study and maintained on a 12-h light/12-h dark cycle at 22 ± 1°C and at 50–55% relative humidity with free access to solid pellet diet and water ad libitum throughout the study. All rats were assigned randomly to three groups, including acute liver injury (ALI) rat, SC-treated ALI rat and the control, 5 in each group. The ALI and SC-treated ALI rats were intraperitoneal injected two doses of the mixture of CCl4 and olive oil (1:1, V/V) at 2 mL/kg in a 24 h time interval (Huang et al., [2001]), while the control group was given the same volume of olive oil. Then, the SC-treated ALI rat was orally dosed with SC alcoholic extract suspended in 0.5% sodium carboxymethyl cellulose (CMC) at 1.5 g/kg/day for 4 days after CCl4 injection. The dosages were set according to the amounts of the four active lignans used previously for pharmacological studies and their contents in the extract (Chiu et al., [2002], [2007]; Cheng et al., [2013]). All animal protocols were approved by the Animal Care and Welfare Committee of the Academy of Military Medical Sciences. All animal procedures complied with the Guide for the Care and Use of Laboratory Animals issued by Beijing Association on Laboratory Animal Care (BALAC).
Serum aspartate transaminase (AST), alanine transaminase (ALT), alkaline phosphatase (ALP), lactate dehydrogenase (LDH), total bilirubin, blood urea nitrogen (BUN), and creatinine (CRE) levels were determined with commercial kits (Nanjing Jiancheng Bioengineering Institute, China).

The subject of data set [3] is rat intestine (jejunum segment). The data set is described as follows: In situ intestinal perfusion of four lignans. It is filed as in vivo. The conditions noted are these: for Perfusate (Percent of the initial dose) / Plasma (Percent of the initial dose) / Intestine (Percent of the initial dose) / Pblood / Plumen: 50 μM, n = 3; for Perfusate (Percent of the initial dose): intestinal perfusion 60 min; for Plasma (Percent of the initial dose) / Intestine (Percent of the initial dose): intestinal perfusion; for Plasma (Percent of the initial dose): mesenteric vein blood. As to the method: The surgical procedures of intestinal perfusion were conducted according to those published reports (Savina et al., [1981]). Hank's balanced salt solution (HBSS, pH 7.4) with four schisandra lignans (50 μM) at 37°C was infused into the jejunum segment at rate of 0.3 mL/min. Phenol Red (50 μM) was added to serve as a nonabsorbable marker for measuring water flux. Blood samples from mesenteric vein and perfusate were collected at 5-min interval. The plasma separated by centrifugation and perfusate was stored at −20°C until HPLC-MS analysis.
The permeability of four lignans across the rat intestine was calculated based on the disappearance of parent drug from the lumen (Plumen) as well as the appearance of the drug in blood (Pblood) using the following equations (Singhal et al., [1998]):
(1) Plumen = −Q/2πrlLnCout/Cin
(1) Pblood = ΔMB/Δt/2πrl{C}
where r is the radius of the perfused intestinal lumen; l is the length of the segment; Q is the flow rate of perfusate; Cin is the concentration of drug at the start of perfusion; and Cout is the steady-state concentration of drug exiting the lumen. ΔMB/Δt is the rate of drug appearance in mesenteric blood; and {C} is the logarithmic mean concentration of drug in the lumen.

A short description of data set [4]: Pharmacokinetics of four lignans in rats after oral SC alcoholic extract. It is filed as in vivo, rat. As to the method:
The pharmacokinetic profiles of four lignans were studied in ALI rat after multiple oral administrations of SC alcoholic extract at dose of 1.5 g/kg/day. After the ALI rat was established, SC alcoholic extract suspended in 0.5% sodium carboxymethyl cellulose was given to ALI rats and the control via oral gavage once a day for 4 consecutive days. Before the last dosing, rats were fasted for 12 h while water was taken freely. Blood samples were collected at 0, 0.25, 0.5, 1, 2, 3, 4, 6, 8, 12, 24, 36, and 48 h after the last dosing. A cannula was surgically placed into the jugular vein for collection of blood samples (about 0.1 mL) and blood loss compensation using sterile isotonic saline in the pharmacokinetic study. Plasma was separated by centrifugation and stored at −20°C until analysis. Plasma concentrations of the four lignans were quantified using HPLC-MS analysis developed according to the reported method (Wang et al., [2008]).
Data fitting and pharmacokinetic parameter calculations were carried out using the Winnolin software. Non-compartmental analysis was used to calculate the pharmacokinetic parameters. Parameters, such as AUC and MRT, were calculated using statistical moment method.

Another data set relates to rat liver. In words: In situ hepatic perfusion of four lignans. Format: in vivo. Particulars: 10 μM, n = 3; for Total amount of analyte in bile / Total amount of analyte in liver: hepatic perfusion 60 min; for AUC: perfusate AUC(0−1h). As to the method:
In situ liver perfusion was performed similarly as the method described previously (Uraki et al., [2016]). […] The perfusate consisted of Krebs–Hensleit buffer (pH 7.4) containing sodium taurocholate (4.75 mg/L), 1% bovine serum albumin, and glucose (1.2 g/L) was oxygenated using carbogen, 95% O2/5% CO2. The perfusate at 37°C was infused into the portal vein at a flow rate of 30 mL/min in a recirculatory manner. After 10-min equilibration, four schisandra lignans were added to the reservoir (final concentration of 10 μM). Perfusate (0.5 mL) and bile samples were collected at 0, 10, 20, 30, 40, 50, and 60 min after the addition of lignans. The same volume of blank perfusion buffer was immediately added to the reservoir after collection of the perfusate samples. After hepatic perfusion, rat was sacrificed and liver was removed, blotted dry, and weighed.

In another data set the test system is Caco-2 cell monolayer. The data set is described as follows: Transport across Caco-2 cell monolayer. Format: in vitro ADME. Particulars: for ER: ER = Papp (BL → AP)/Papp(AP → BL). As to the method:
as §1, §2

Where [5] appears, read: Caco-2, with PSC833 (concentration not stated), + PSC833.
Setting [6] is: Caco-2, ER = Papp (BL → AP)/Papp(AP → BL).
Where [7] appears, read: ALI rat intoxicated with CCl4 vs control rats.
[8] abbreviates: CCl4-intoxicated rats vs control.
[9] abbreviates: CCl4-intoxicated rats, oral SC alcoholic extract 1.5 g/kg/day for 4 days, plasma, n = 5.
Setting [10] is: Control (normal) rats, oral SC alcoholic extract 1.5 g/kg/day for 4 days, plasma, n = 5.

Turning to `C[C@H]1O[C@@H](O[C@H]2[C@@H](O)C[C@H](O[C@H]3[C@@H](O)C[C@H](O[C@H]4CC[C@@]5(C)[C@H](CC[C@@H]6[C@@H]5C[C@@H](O)[C@]5(C)[C@@H](C7=CC(=O)OC7)CC[C@]65O)C4)O[C@@H]3C)O[C@@H]2C)C[C@H](O)[C@@H]1O` [Digoxin, digoxin, reference compound], the Papp A→B (usually the apparent permeability from the apical to the basolateral side of a cell layer) at 2 h, 5 μM in data set [1] (setting [5]) came to 1.46 ± 0.24 ×10⁻⁶ cm/s; in data set [1] (Caco-2), 3.29 ± 4.02 ×10⁻⁶ cm/s. Also, the Papp B→A (in general, how fast a substance crosses the layer from the basolateral side) at 2 h, 5 μM in data set [1] (setting [5]) was 2.38 ± 0.58 ×10⁻⁶ cm/s; in data set [1] (Caco-2), 11.6 ± 0.82 ×10⁻⁶ cm/s. In addition, the efflux ratio at 2 h, 5 μM in data set [1] (Caco-2, with PSC833 (concentration not stated), + PSC833, read-out: ER) is 1.63; in data set [1] (setting [6]), 3.53.

Consider `ClC(Cl)(Cl)Cl` [CCl4, carbon tetrachloride], for which, in data set [2] (setting [7]), the “Decrease of content of liver microsomal CYP450 enzyme” value was 54%, the “Increase of BUN” value was determined as 30%, the “Increase of liver index” value worked out at 40% and the “Increase of serum ALT” value is 720%. Besides, the “Increase of serum AST” value in data set [2] (setting [7]) is 30%. In data set [2] (CCl4-intoxicated rats), this molecule showed a BUN of 18.3 ± 1.2 mg/dL and a CRE of 0.8 ± 0.1 mg/dL. Also, in data set [2] (setting [8]), the “Serum ALT increase” value is 8.2 folds and the “Serum AST increase” value turned out to be 1.3 folds. In data set [2] (CCl4-intoxicated rats, CCl4:olive oil (1:1) 2 mL/kg i.p., two doses), this molecule displayed a Liver index of 38 ± 5 g/kg. The “Liver P450” value in data set [2] (CCl4-intoxicated rats, liver microsomal CYP450 content) amounted to 0.27 ± 0.12 nmol/mg. In data set [2] (CCl4-intoxicated rats, serum), this molecule yielded an ALP of 8.15 ± 0.09 IU/L, an ALT of 329 ± 49 IU/L, an AST of 268 ± 49 IU/L and an LDH of 605 ± 168 IU/L. Further, the TB in data set [2] (CCl4-intoxicated rats, total bilirubin) is on record as 0.09 ± 0.02 mg/dL.

In data set [1] (Caco-2), `CC(C)NCC(O)COc1cccc2ccccc12` (stereo not drawn) [Propranolol, propranolol, reference compound] returned a Papp A→B at 2 h, 5 μM of 32.9 ± 6.03 ×10⁻⁶ cm/s and a Papp B→A at 2 h, 5 μM of 24.6 ± 1.8 ×10⁻⁶ cm/s. Also, the efflux ratio at 2 h, 5 μM in data set [1] (setting [6]) was 0.75.

As to schisantherin A, in data set [3] (CCl4-intoxicated rats), the “Perfusate (Percent of the initial dose)” value is reported as 92.85 ± 1.33% of the initial dose, the “Plasma (Percent of the initial dose)” value is recorded as 0.82 ± 0.04% of the initial dose, the “Intestine (Percent of the initial dose)” value is 1.95 ± 0.36% of the initial dose and the Pblood was 0.060 ± 0.016 × 10^−4 cm/s. In addition, the Plumen in data set [3] (CCl4-intoxicated rats) is given as 2.047 ± 0.373 × 10^−4 cm/s. For the same molecule, in data set [3] (Control rats), the “Perfusate (Percent of the initial dose)” value is listed as 92.47 ± 1.06% of the initial dose, the “Plasma (Percent of the initial dose)” value is recorded as 0.80 ± 0.07% of the initial dose, the “Intestine (Percent of the initial dose)” value is given as 1.65 ± 0.37% of the initial dose and the Pblood was 0.047 ± 0.006 × 10^−4 cm/s. Also, the Plumen in data set [3] (Control rats) is on record as 2.303 ± 0.163 × 10^−4 cm/s. Moreover, the “Increase of remaining amount in perfusate” value in data set [3] (intestinal autoperfusion (60 min), CCl4-treated rats vs control) is on record as “not changed”. Further, in data set [4] (setting [9]), the AUC(0−t) turned out to be 99600 ± 45600 ng·h/mL; the CLz/F was found to be 234.05 ± 115.74 L/h/kg; the Cmax (in general, the maximum level reached in the sampled fluid or tissue) was found to be 3190 ± 1160 ng/mL; the “MRT(0−t)” value amounted to 19.84 ± 1.18 h. In data set [4] (setting [9]), the Tmax (commonly the time from dosing to the highest level) was 9.60 ± 3.29 h and the t1/2 is listed as 17.65 ± 3.32 h. The “Reduction of systemic clearance (CLz/F)” value in data set [4] (CCl4 intoxicated rats vs control rats) is recorded as around 89%. Besides, in data set [4] (setting [10]), the AUC(0−t) stood at 11300 ± 3870 ng·h/mL, the Cmax stood at 569 ± 163 ng/mL, the “MRT(0−t)” value amounted to 15.42 ± 0.29 h and the time of peak concentration (Tmax) was determined as 5.00 ± 1.41 h. The molecule further yielded a t1/2 in data set [4] (setting [10]) of 12.39 ± 2.12 h. For the same molecule, in the data set with rat liver (CCl4-intoxicated rats), the “Total amount of analyte in bile” value is 1.61 ± 0.34 µg; the “Total amount of analyte in liver” value was 17.15 ± 1.84 µg; the AUC (usually the area under the concentration-time curve, a measure of exposure) was 4790 ± 30 ng·h/mL. In addition, in the data set with rat liver (Control rats), the “Total amount of analyte in bile” value was found to be 1.48 ± 0.23 µg, the “Total amount of analyte in liver” value was found to be 12.36 ± 1.65 µg and the AUC was determined as 4080 ± 140 ng·h/mL. In addition, in the data set on Caco-2 cell monolayer (5 μM), the “Papp(AP−BL)” value is 1.33 ± 0.12 × 10^−6 cm/s, the “Papp(BL−AP)” value is on record as 1.52 ± 0.26 × 10^−6 cm/s and the ER is given as 1.14. Further, in the data set with Caco-2 cell monolayer (10 μM), the “Papp(AP−BL)” value is listed as 1.81 ± 0.35 × 10^−6 cm/s, the “Papp(BL−AP)” value is 2.28 ± 0.47 × 10^−6 cm/s and the ER worked out at 1.26. In the data set with Caco-2 cell monolayer (50 μM), the “Papp(AP−BL)” value is given as 1.43 ± 0.35 × 10^−6 cm/s, the “Papp(BL−AP)” value was 1.28 ± 0.24 × 10^−6 cm/s and the ER is recorded as 0.89.
